Consider one molecule from ChEMBL document CHEMBL2073911, “Sensitivity of bile acid transport by organic anion-transporting polypeptides to intracellular pH” (Biochim Biophys Acta, 2003).

For this data set, the target named is T1, Solute carrier organic anion transporter family member 1A1 (Rattus norvegicus, UniProt P46720).
T1 sequence (P46720 whole entry): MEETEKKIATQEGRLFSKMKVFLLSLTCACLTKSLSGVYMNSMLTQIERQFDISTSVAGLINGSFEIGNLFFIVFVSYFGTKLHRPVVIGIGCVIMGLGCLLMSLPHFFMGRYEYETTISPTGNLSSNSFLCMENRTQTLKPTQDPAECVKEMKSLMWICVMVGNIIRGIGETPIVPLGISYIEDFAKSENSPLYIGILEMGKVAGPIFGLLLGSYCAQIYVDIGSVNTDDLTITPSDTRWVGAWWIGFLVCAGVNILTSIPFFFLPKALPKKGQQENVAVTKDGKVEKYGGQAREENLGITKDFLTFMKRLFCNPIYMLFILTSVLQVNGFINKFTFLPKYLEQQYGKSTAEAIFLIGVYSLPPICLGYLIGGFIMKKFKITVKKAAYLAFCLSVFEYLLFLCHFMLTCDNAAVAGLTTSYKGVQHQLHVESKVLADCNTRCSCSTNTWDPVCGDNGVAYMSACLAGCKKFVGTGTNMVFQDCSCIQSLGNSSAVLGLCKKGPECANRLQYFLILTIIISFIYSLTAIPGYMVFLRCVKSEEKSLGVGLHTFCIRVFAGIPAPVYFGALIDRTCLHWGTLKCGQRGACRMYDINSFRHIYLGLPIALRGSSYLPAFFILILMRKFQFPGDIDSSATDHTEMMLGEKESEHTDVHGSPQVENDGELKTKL
The data set is described as follows: TP_TRANSPORTER: uptake in Oatp1-expressing CHO-03 cell. The format is functional, cell-based. Particulars: hamster.

Regarding `C[C@H](CCC(=O)NCC(=O)O)[C@H]1CC[C@H]2[C@@H]3[C@H](O)C[C@@H]4C[C@H](O)CC[C@]4(C)[C@H]3C[C@H](O)[C@]12C` [GLYCOCHOLIC ACID], the Activity result is “substrate [+]”.
